# Measurements published in ChEMBL document CHEMBL1131873, “Induction of erythroid differentiation of human K562 cells by 3-O-acyl-1,2-O-isopropylidene-D-glucofuranose derivatives” (Bioorg Med Chem Lett, 1999).
# Tests used:
# K562 [1] = experiment: Inhibition of cell growth against human myeloid leukemia K562(S) cells; format: functional, cell-based
# K562 [2] = experiment: Evaluated for erythroid induction of benzidine-positive K562 cells at concentration 3 mM; format: functional, Homo sapiens
# K562 [3] = experiment: Effect of compound on erythroid differentiation of K562 cells was determined after a period of 7 days at concentration 500 nM; format: functional, Homo sapiens
# K562 [4] = experiment: Effect of compound on erythroid differentiation of K562 cells was determined after a period of 9 days at concentration 500 nM; format: functional, Homo sapiens
# K562 [5] = experiment: Effect of compound on erythroid differentiation of K562 cells was determined after a period of 5 days at concentration 500 nM; format: functional, Homo sapiens
# K562 [6] = experiment: Effect of compound on erythroid differentiation of K562 cells was determined after a period of 3 days at concentration 500 nM; format: functional, Homo sapiens
# K562 [7] = experiment: Compound was evaluated for erythroid induction of benzidine-positive K562 cells at concentration 1 mM after 9 day induction period; format: functional, Homo sapiens
# K562 [8] = experiment: Effect of compound on erythroid differentiation of K562 cells was determined after a period of 3 days at concentration 20 nM; format: functional, Homo sapiens
# K562 [9] = experiment: Effect of compound on erythroid differentiation of K562 cells was determined after a period of 7 days at concentration 20 nM; format: functional, Homo sapiens
# K562 [10] = experiment: Effect of compound on erythroid differentiation of K562 cells was determined after a period of 5 days at concentration 20 nM; format: functional, Homo sapiens
# K562 [11] = experiment: The compound was evaluated for inhibition of cell growth against human myeloid leukemia K562(S) cells; format: functional, cell-based
# K562 [12] = experiment: Effect of compound on erythroid differentiation of K562 cells was determined after a period of 9 days at concentration 20 nM; format: functional, Homo sapiens
# K562 [13] = experiment: Evaluated for erythroid induction of benzidine-positive K562 cells at concentration 2 mM after 9 day induction period; format: functional, Homo sapiens
# K562 [14] = experiment: Effect of compound on erythroid differentiation of K562 cells was determined after a period of 7 days at concentration 4 mM; format: functional, Homo sapiens
# K562 [15] = experiment: Effect of compound on erythroid differentiation of K562 cells was determined after a period of 9 days at concentration 4 mM; format: functional, Homo sapiens
# K562 [16] = experiment: Effect of compound on erythroid differentiation of K562 cells was determined after a period of 5 days at concentration 4 mM; format: functional, Homo sapiens
# K562 [17] = experiment: Effect of compound on erythroid differentiation of K562 cells was determined after a period of 3 days at concentration 4 mM; format: functional, Homo sapiens
# K562 [18] = experiment: In vitro inhibition of cell growth against human myeloid leukemia K562(S) cells; format: functional, cell-based
# K562 [19] = experiment: Maximum level of percentage of benzidine-positive (hemoglobin-containing) K562 cells reached with in 9 days at 4 mM concentration; format: functional, Homo sapiens
# K562 [20] = experiment: Maximum level of percentage of benzidine-positive (hemoglobin-containing) K562 cells reached with in 9 days at 3 mM concentration; format: functional, Homo sapiens
# K562 [21] = experiment: Compound was evaluated for erythroid induction of benzidine-positive K562 cells at concentration 4 mM after 9 day induction period; format: functional, Homo sapiens
# K562 [22] = experiment: Compound was evaluated for erythroid induction of benzidine-positive K562 cells at concentration 3 mM after 9 day induction period; format: functional, Homo sapiens
# K562 [23] = experiment: Compound was evaluated for erythroid induction of benzidine-positive K562 cells at concentration 4 mM; format: functional, Homo sapiens
# K562 [24] = experiment: Compound (2 mM) was evaluated for maximum level of percentage of benzidine-positive (hemoglobin-containing) K562 cells in the presence of retinoic acid (5 uM); format: functional, Homo sapiens
# K562 [25] = experiment: Compound (2 mM) was evaluated for maximum level of percentage of benzidine-positive (hemoglobin-containing) K562 cells in the presence of ara-C (25 nM); format: functional, Homo sapiens
# K562 [26] = experiment: Compound (2 mM) was evaluated for maximum level of percentage of benzidine-positive (hemoglobin-containing) K562 cells in the presence of mithramycin (5 nM); format: functional, Homo sapiens
# K562 [27] = experiment: Compound was evaluated for erythroid induction of benzidine-positive K562 cells at concentration 5 mM; format: functional, Homo sapiens
# K562 [28] = experiment: Compound (2 mM) was evaluated for maximum level of percentage of benzidine-positive (hemoglobin-containing) K562 cells in the presence of retinoic acid (5 µM)
# K562 [29] = experiment: Compound was evaluated for erythroid induction of benzidine-positive K562 cells at concentration 5 mM after 9 day induction period; format: functional, Homo sapiens
smiles,measurement,setting,value
CCCC(=O)O [BUTYRIC ACID],IC50,K562 [1],2400 µM
same,Erythroid induction,K562 [2],35%
Nc1ccn([C@@H]2O[C@H](CO)[C@@H](O)[C@@H]2O)c(=O)n1 [CYTARABINE],IC50,K562 [1],0.5 µM
same,Erythroid induction,K562 [3],84.5%
same,Erythroid induction,K562 [4],93.2%
same,Erythroid induction,K562 [2],95%
same,Erythroid induction,K562 [5],61.5%
same,Erythroid induction,K562 [6],45%
CC(CC(=O)OC1C(C(O)CO)OC2OC(C)(C)OC21)c1ccccc1 (stereo not drawn),IC50,K562 [1],500 µM
same,Erythroid induction,K562 [7],15%
CC1(C)OC2OC(C(O)CO)C(OC(=O)CC(c3ccccc3)c3ccccc3)C2O1 (stereo not drawn),IC50,K562 [1],500 µM
same,Erythroid induction,K562 [7],14%
CO[C@H](C(=O)[C@@H](O)[C@@H](C)O)[C@@H]1Cc2cc3cc(O[C@H]4C[C@@H](O[C@@H]5C[C@@H](O)[C@H](O)[C@@H](C)O5)[C@H](O)[C@@H](C)O4)c(C)c(O)c3c(O)c2C(=O)[C@H]1O[C@H]1C[C@@H](O[C@@H]2C[C@@H](O)[C@@H](O[C@@H]3C[C@](C)(O)[C@H](O)[C@@H](C)O3)[C@@H](C)O2)[C@H](O)[C@@H](C)O1 [PLICAMYCIN],Erythroid induction,K562 [8],15%
same,Erythroid induction,K562 [9],75%
same,Erythroid induction,K562 [10],55%
same,Erythroid induction,K562 [2],81%
same,IC50,K562 [11],0.01 µM
same,Erythroid induction,K562 [12],80%
CC(C)(C)CC(=O)OC1C(C(O)CO)OC2OC(C)(C)OC21 (stereo not drawn),IC50,K562 [1],1200 µM
same,Erythroid induction,K562 [13],20%
CC(C)C(=O)O,Erythroid induction,K562 [14],12%
same,IC50,K562 [1],4800 µM
same,Erythroid induction,K562 [2],14%
same,Erythroid induction,K562 [15],8%
same,Erythroid induction,K562 [16],14%
same,Erythroid induction,K562 [17],12%
CC1(C)OCC(C2OC3OC(C)(C)OC3C2O)O1 (stereo not drawn),IC50,K562 [18],2800 µM
same,Erythroid induction,K562 [19],18%
same,Erythroid induction,K562 [20],26%
CC(=O)OC1C(C(O)CO)OC2OC(C)(C)OC21 (stereo not drawn),IC50,K562 [1],3800 µM
same,Erythroid induction,K562 [19],27%
CCCC(=O)OC1C(C(O)CO)OC2OC(C)(C)OC21 (stereo not drawn),IC50,K562 [1],800 µM
same,Erythroid induction,K562 [13],25.4%
CCC(=O)OC1C(C(O)CO)OC2OC(C)(C)OC21 (stereo not drawn),IC50,K562 [1],2400 µM
same,Erythroid induction,K562 [21],25%
same,Erythroid induction,K562 [13],21%
same,Erythroid induction,K562 [22],19.6%
CCCCCC(=O)OC1C(C(O)CO)OC2OC(C)(C)OC21 (stereo not drawn),IC50,K562 [1],1200 µM
same,Erythroid induction,K562 [7],10.3%
same,Erythroid induction,K562 [13],21%
CC(C)(C)C(=O)O [PIVALATE],Erythroid induction,K562 [14],11%
same,IC50,K562 [1],4500 µM
same,Erythroid induction,K562 [2],12%
same,Erythroid induction,K562 [15],6%
same,Erythroid induction,K562 [16],9%
same,Erythroid induction,K562 [17],4%
CC1(C)OC2OC(C(O)CO)C(OC(=O)C(C)(C)C)C2O1 (stereo not drawn),Erythroid induction,K562 [14],50.7%
same,Erythroid induction,K562 [23],50.2%
same,IC50,K562 [1],1500 µM
same,Erythroid induction,K562 [2],51.7%
same,Erythroid induction,K562 [15],59%
same,Erythroid induction,K562 [24],67%
same,Erythroid induction,K562 [16],25%
same,Erythroid induction,K562 [17],22%
same,Erythroid induction,K562 [25],90%
same,Erythroid induction,K562 [26],34%
CC(C)C(=O)OC1C(C(O)CO)OC2OC(C)(C)OC21 (stereo not drawn),Erythroid induction,K562 [14],56.8%
same,Erythroid induction,K562 [23],54.2%
same,IC50,K562 [1],2500 µM
same,Erythroid induction,K562 [27],59%
same,Erythroid induction,K562 [2],43%
same,Erythroid induction,K562 [28],55.8%
same,Erythroid induction,K562 [15],50%
same,Erythroid induction,K562 [16],35%
same,Erythroid induction,K562 [17],20%
same,Erythroid induction,K562 [25],78%
CC1(C)OC2OC(C(O)CO)C(OC(=O)C3CCCC3)C2O1 (stereo not drawn),IC50,K562 [1],2500 µM
same,Erythroid induction,K562 [29],8%
same,Erythroid induction,K562 [21],16.8%
same,Erythroid induction,K562 [22],7%
CC(C)CC(=O)OC1C(C(O)CO)OC2OC(C)(C)OC21 (stereo not drawn),IC50,K562 [1],1000 µM
same,Erythroid induction,K562 [13],12%
CCCCC(=O)OC1C(C(O)CO)OC2OC(C)(C)OC21 (stereo not drawn),IC50,K562 [1],2000 µM
same,Erythroid induction,K562 [21],25%
same,Erythroid induction,K562 [13],24%
same,Erythroid induction,K562 [22],28%
CCC(=O)O [PROPIONIC ACID],IC50,K562 [1],4000 µM
same,Erythroid induction,K562 [21],10%
